Results reported in article PMC5031918 (Journal of Antimicrobial Chemotherapy, 2016).
“Also recorded” adds a separate entry of the source. Like-named read-outs stand apart in the source and are kept apart here. Blank lines part the entries; values can stand above or below the compound they belong to.

How the values were obtained:
primary CD4+ T cells = test: Calcein accumulation/efflux in primary CD4+ T cells, flow cytometry; type: cell-based, human
CEM-WT cells = test: [3H]raltegravir cellular accumulation ratio; type: in vitro ADME, human; settings: 30 min; for Effect of efflux inhibitor on [3H]raltegravir CAR: MK571 100 μM, XR9051 10 μM or 1 μM (Figure 1a); for Effect of 100 μM cold drug (cis inhibitor) on [3H]raltegravir CAR / CAR of raltegravir: [3H]raltegravir 1 μM
CEM-WT (CEM-CCRF) cells = test: Calcein-AM fluorescence accumulation assay, flow cytometry, CEM-WT cells; type: cell-based, human; settings: antiviral drug at 100 μM, calcein-AM 0.25 μM
[1] = target: T1, MRP1 (ABCC1), CEM-MRP1 cells (Homo sapiens, UniProt P33527); test: Calcein-AM fluorescence accumulation assay, flow cytometry, CEM-MRP1 cells; type: cell-based; settings: antiviral drug at 100 μM, calcein-AM 0.25 μM
T1 sequence (P33527 whole entry): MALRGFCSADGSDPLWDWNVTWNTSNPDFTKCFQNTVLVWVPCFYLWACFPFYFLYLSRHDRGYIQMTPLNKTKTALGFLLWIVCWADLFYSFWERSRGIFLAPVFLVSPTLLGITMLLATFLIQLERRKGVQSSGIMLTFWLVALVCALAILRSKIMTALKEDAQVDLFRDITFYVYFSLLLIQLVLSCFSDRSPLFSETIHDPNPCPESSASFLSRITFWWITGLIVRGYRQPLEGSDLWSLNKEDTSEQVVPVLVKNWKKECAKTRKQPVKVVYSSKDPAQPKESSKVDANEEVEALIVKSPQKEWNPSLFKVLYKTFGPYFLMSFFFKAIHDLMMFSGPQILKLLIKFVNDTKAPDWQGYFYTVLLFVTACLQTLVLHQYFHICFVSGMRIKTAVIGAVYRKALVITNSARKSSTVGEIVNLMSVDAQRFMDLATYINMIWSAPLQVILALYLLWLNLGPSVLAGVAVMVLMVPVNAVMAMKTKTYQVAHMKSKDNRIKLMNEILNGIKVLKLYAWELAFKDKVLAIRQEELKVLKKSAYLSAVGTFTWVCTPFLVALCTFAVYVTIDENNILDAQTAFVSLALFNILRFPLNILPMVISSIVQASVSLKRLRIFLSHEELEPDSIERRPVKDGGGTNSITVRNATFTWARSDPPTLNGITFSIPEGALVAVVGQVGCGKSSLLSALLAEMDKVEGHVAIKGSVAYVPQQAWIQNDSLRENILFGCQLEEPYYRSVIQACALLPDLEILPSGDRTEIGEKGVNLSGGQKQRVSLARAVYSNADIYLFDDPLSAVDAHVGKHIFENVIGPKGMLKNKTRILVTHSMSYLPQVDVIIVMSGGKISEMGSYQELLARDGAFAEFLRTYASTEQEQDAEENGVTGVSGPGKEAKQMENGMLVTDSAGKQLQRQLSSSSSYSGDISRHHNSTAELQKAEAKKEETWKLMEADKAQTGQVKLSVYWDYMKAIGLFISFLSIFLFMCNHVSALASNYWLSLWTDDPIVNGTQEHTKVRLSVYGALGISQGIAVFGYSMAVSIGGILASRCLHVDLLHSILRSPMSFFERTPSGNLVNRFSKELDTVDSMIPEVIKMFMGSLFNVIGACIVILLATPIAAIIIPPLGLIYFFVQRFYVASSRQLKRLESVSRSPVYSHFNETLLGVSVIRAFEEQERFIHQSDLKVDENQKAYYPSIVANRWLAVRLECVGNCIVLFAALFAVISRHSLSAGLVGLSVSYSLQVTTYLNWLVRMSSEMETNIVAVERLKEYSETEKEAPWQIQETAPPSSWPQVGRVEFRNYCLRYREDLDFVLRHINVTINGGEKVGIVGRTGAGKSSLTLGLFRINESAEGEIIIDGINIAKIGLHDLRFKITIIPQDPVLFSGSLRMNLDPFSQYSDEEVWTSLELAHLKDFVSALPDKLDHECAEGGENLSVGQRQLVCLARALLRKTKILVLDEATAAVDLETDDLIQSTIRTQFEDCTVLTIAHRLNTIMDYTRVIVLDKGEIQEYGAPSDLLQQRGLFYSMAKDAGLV

[2] = target: T1, MRP1 (ABCC1), CEM-MRP1 cells; test: [3H]raltegravir cellular accumulation ratio; settings: 30 min; for Effect of 100 μM cold drug (cis inhibitor) on [3H]raltegravir CAR: [3H]raltegravir 1 μM
[3] = target: T1, MRP1 (ABCC1), CEM-MRP1 cells; test: [3H]ritonavir cellular accumulation ratio; type: in vitro ADME; settings: for Increase of the CAR of [3H]ritonavir by 100 μM cold drug: [3H]ritonavir 1 μM, 30 min
[4] = target: T2, P-gp (ABCB1), CEM-P-gp cells (Homo sapiens, UniProt P08183); test: [3H]raltegravir cellular accumulation ratio; type: in vitro ADME; settings: 30 min
T2 sequence (P08183 whole entry): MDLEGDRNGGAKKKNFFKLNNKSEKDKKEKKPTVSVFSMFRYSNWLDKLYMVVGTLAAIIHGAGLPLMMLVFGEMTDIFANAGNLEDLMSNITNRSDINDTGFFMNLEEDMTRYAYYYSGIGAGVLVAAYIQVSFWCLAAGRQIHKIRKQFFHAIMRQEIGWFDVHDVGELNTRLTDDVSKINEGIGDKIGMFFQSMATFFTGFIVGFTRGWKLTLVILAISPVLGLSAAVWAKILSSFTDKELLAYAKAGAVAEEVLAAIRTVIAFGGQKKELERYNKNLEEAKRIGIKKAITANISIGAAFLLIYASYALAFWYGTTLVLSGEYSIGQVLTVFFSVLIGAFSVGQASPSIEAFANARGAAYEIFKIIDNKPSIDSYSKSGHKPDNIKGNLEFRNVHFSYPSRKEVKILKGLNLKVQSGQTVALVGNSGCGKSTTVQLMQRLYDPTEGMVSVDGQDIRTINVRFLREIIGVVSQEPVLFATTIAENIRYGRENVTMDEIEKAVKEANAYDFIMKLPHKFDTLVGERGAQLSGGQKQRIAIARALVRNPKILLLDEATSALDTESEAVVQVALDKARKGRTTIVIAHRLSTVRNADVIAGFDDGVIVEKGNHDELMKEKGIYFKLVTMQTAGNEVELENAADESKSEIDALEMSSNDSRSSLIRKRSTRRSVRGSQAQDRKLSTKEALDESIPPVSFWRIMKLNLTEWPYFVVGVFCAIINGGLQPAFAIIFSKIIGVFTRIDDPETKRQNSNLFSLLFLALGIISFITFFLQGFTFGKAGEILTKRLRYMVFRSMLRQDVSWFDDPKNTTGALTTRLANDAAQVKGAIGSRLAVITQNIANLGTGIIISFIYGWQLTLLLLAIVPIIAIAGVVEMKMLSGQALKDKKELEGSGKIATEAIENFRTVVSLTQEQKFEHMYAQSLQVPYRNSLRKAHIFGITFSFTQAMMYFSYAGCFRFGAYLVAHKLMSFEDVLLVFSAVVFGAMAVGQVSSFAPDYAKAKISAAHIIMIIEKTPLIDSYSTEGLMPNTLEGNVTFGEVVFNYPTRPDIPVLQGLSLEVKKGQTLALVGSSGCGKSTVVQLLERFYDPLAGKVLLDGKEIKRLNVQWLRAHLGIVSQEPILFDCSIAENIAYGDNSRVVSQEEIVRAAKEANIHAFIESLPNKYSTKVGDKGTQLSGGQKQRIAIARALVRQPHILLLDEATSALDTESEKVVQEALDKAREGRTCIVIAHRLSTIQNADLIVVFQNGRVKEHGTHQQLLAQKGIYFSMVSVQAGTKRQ

[5] = target: T2, P-gp (ABCB1), CEM-P-gp cells; test: [3H]ritonavir cellular accumulation ratio; type: in vitro ADME; settings: reversan 10 μM, P = 0.0021
[6] = target: P-gp, primary CD3+CD4+ T cells (Homo sapiens, UniProt P08183); type: in vitro ADME; settings: XR9051 1 μM, P = 0.017
P-gp, primary CD3+CD4+ T cells, sequence (P08183 whole entry): as above

Fluorescence ratio (MFI treated/MFI mock cells), calcein [1]: 1.23
Compound: Cc1ccnc2c1NC(=O)c1cccnc1N2C1CC1 [nevirapine]
Fluorescence ratio (MFI treated/MFI mock cells), calcein (CEM-WT (CEM-CCRF) cells): 0.92

Effect of 100 μM cold drug (cis inhibitor) on [3H]raltegravir CAR ([2]; CEM-MRP1): no changes
Reduction in intracellular raltegravir accumulation with respect to control CEM-WT cells ([2]; untreated CEM-MRP1): > 30%
CAR raltegravir MRP1/CAR raltegravir WT ([2]; untreated cells, P < 0.0001): 0.64
Increase of the CAR of [3H]ritonavir by 100 μM cold drug [3]: did not inhibit
CAR of raltegravir (CEM-WT cells; accumulation experiments (Figure 1b), normalized to 100%): 3.04 ± 0.62
CAR of raltegravir (CEM-WT cells; time-course (Figure 1a)): 3.12 ± 0.12
CAR of raltegravir ([4]; CEM-P-gp, [3H]raltegravir 1 μM, co-incubation with XR9051 1 μM, P = 0.0025): 2.46 ± 0.10
Reduction in intracellular raltegravir accumulation with respect to CEM-WT ([4]; untreated CEM-P-gp): 52%
CAR raltegravir P-gp/CAR raltegravir WT ([4]; untreated cells, P < 0.0001): 0.48
Compound: Cc1nnc(C(=O)NC(C)(C)c2nc(C(=O)NCc3ccc(F)cc3)c(O)c(=O)n2C)o1 [raltegravir]
Effect of 100 μM cold drug (cis inhibitor) on [3H]raltegravir CAR (CEM-WT cells): no changes

Effect of reversan on reduced [3H]ritonavir accumulation [5]: reversed in part
Effect of reversan on reduced [3H]ritonavir accumulation ([3]; reversan 10 μM, P = 0.037): reversed in part
Compound: O=C(NCCCN1CCOCC1)c1cnn2c(-c3ccccc3)cc(-c3ccccc3)nc12 [reversan]

Effect of 100 μM cold drug (cis inhibitor) on [3H]raltegravir CAR ([2]; CEM-MRP1): did not affect
Increase of the CAR of [3H]ritonavir by 100 μM cold drug [3]: 25%
Compound: CC(C)c1nc(CN(C)C(=O)N[C@H](C(=O)N[C@@H](Cc2ccccc2)C[C@H](O)[C@H](Cc2ccccc2)NC(=O)OCc2cncs2)C(C)C)cs1 [ritonavir]
Effect of 100 μM cold drug (cis inhibitor) on [3H]raltegravir CAR (CEM-WT cells): did not affect

Effect of 100 μM cold drug (cis inhibitor) on [3H]raltegravir CAR ([2]; CEM-MRP1): did not affect
Fluorescence ratio (MFI treated/MFI mock cells), calcein [1]: 3.94
Compound: CC(C)(C)NC(=O)[C@@H]1C[C@@H]2CCCC[C@@H]2CN1C[C@@H](O)[C@H](Cc1ccccc1)NC(=O)[C@H](CC(N)=O)NC(=O)c1ccc2ccccc2n1 [saquinavir]
Fluorescence ratio (MFI treated/MFI mock cells), calcein (CEM-WT (CEM-CCRF) cells): 0.77
Effect of 100 μM cold drug (cis inhibitor) on [3H]raltegravir CAR (CEM-WT cells): did not affect
Effect of 100 μM cold drug (cis inhibitor) on [3H]raltegravir CAR ([4]; CEM-P-gp, [3H]raltegravir 1 μM): significantly competed with raltegravir efflux

Continued, compound first:

Compound: COc1ccc2c3c([nH]c2c1)[C@H](CC(C)C)N1C(=O)[C@H](CCC(=O)OC(C)(C)C)NC(=O)[C@@H]1C3 [Ko143]
Inhibition of calcein accumulation (primary CD4+ T cells; primary CD4+ T cells, low doses (<1 μM) of Ko143, data not shown): null inhibition

Compound: CN(C)C(=O)CCSC(SCCC(=O)O)c1cccc(/C=C/c2ccc3ccc(Cl)cc3n2)c1 (stereo not shown) [MK571]
Effect of efflux inhibitor on [3H]raltegravir CAR (CEM-WT cells): did not affect

Compound: CC(C)CN(C[C@@H](O)[C@H](Cc1ccccc1)NC(=O)O[C@H]1CCOC1)S(=O)(=O)c1ccc(N)cc1 [amprenavir]
Fluorescence ratio (MFI treated/MFI mock cells), calcein (CEM-WT (CEM-CCRF) cells): 0.87
Fluorescence ratio (MFI treated/MFI mock cells), calcein [1]: 3.49

Compound: COC(=O)N[C@H](C(=O)N[C@@H](Cc1ccccc1)[C@@H](O)CN(Cc1ccc(-c2ccccn2)cc1)NC(=O)[C@@H](NC(=O)OC)C(C)(C)C)C(C)(C)C [atazanavir]
Fluorescence ratio (MFI treated/MFI mock cells), calcein (CEM-WT (CEM-CCRF) cells): 0.63
Fluorescence ratio (MFI treated/MFI mock cells), calcein [1]: 2.54

Compound: O=C1Nc2ccc(Cl)cc2[C@@](C#CC2CC2)(C(F)(F)F)O1 [efavirenz]
Fluorescence ratio (MFI treated/MFI mock cells), calcein (CEM-WT (CEM-CCRF) cells): 0.94
Fluorescence ratio (MFI treated/MFI mock cells), calcein [1]: 4.38

Compound: CC(C)(C)NC(=O)[C@@H]1CN(Cc2cccnc2)CCN1C[C@@H](O)C[C@@H](Cc1ccccc1)C(=O)N[C@H]1c2ccccc2C[C@H]1O [indinavir]
Fluorescence ratio (MFI treated/MFI mock cells), calcein (CEM-WT (CEM-CCRF) cells): 1.28
Fluorescence ratio (MFI treated/MFI mock cells), calcein [1]: 2.11

Compound: Cc1cccc(C)c1OCC(=O)N[C@@H](Cc1ccccc1)[C@@H](O)C[C@H](Cc1ccccc1)NC(=O)[C@H](C(C)C)N1CCCNC1=O [lopinavir]
Fluorescence ratio (MFI treated/MFI mock cells), calcein (CEM-WT (CEM-CCRF) cells): 0.60
Fluorescence ratio (MFI treated/MFI mock cells), calcein [1]: 4.20

Compound: XR9051
Effect of efflux inhibitor on [3H]raltegravir CAR ([2]; CEM-MRP1, MK571 100 μM, XR9051 10 μM): neither MK571 nor XR9051 affected
Effect of efflux inhibitor on [3H]raltegravir CAR (CEM-WT cells): did not significantly alter; also recorded: did not affect
Effect on activity of P-gp^high cells (calcein efflux) (primary CD4+ T cells; non-stimulated CD4+ cells, XR9051 1 μM during the 2 h efflux time): remarkably inhibited
Effect of efflux inhibitor on [3H]raltegravir CAR ([4]; CEM-P-gp, XR9051 10 μM or 1 μM (Figure 1a)): significantly increased accumulation
Effect of XR9051 on reduced [3H]raltegravir accumulation ([6]; CD3+CD4+P-gp^high cells): significantly reverse this effect
Effect of XR9051 on reduced [3H]raltegravir accumulation ([6]; total unsorted PBMCs): could also be reversed
